Measurements reported in US9187458B2, “Cyanoquinoline derivatives” (Tianjin Hemay Bio-Tech Co., LTD., priority 2010, dated 2015).

Key:
A431 cells = experiment: A431 Cell Growth Inhibition Test (MTT Assay); assay type: cell-based, human; conditions: Homo sapiens; for IC50: A-431, 68 h incubation; for inhibition at 1 µM: A-431, 68 h, compound 1 μM, 68 h incubation, read-out: Growth Inhibition Ratio (%)
Outline: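 Cells seeded at 2500/well in DMEM/F12 with 10% FBS, grown overnight, then exposed to compound for 68 h at 37 °C, 5% CO2. Viability by MTT (0.5 mg/ml, 4 h), DMSO-solubilised, OD 490 nm; IC50 is concentration giving 50% growth inhibition relative to controls.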

A549 cells = experiment: A549 Cell Growth Inhibition Test (MTT Assay); assay type: cell-based; conditions: Homo sapiens, 72 h incubation
Method: A549 Cell Growth Inhibition Test (MTT Assay)
1. Cell strains: […] (human lung caner cell strains);
Culture medium: 90% F12K+10% FBS;
(§1) 1. A plate (10 cm) of cells in logarithmic growth phase normally cultured was collected;
2. The culture solution was sucked out. Tthe plate was washed with 5 ml of PBS 1-2 times;
(§2) 3. PBS was sucked out. 2 ml of 0.25% pancreatin was added to infiltrate the cells for 1 min;
4. The pancreatin was sucked out. The culture plate was placed in an incubator. Digestion was carried out for about 2 min at 37° C.;
5. 4 ml of complete culture solution was added to the culture plate to stop the digestion. The cells were carefully scoured with micropipette (1 ml) to give a uniform cell suspension. The suspension was implanted into a 96-well cell culture plate by 2500 cells/100 μl per well. The culture plate was incubated overnight under 5% CO2 at 37° C. In day 2, 100 μl of culture solution comprising a compound was added in each well, and further incubated for 72 h under 5% CO2 at 37° C.
(§3) 6. The culture solution was sucked out;
7. 100 μl of serum-free culture solution containing 0.5 mg/ml MTT was added in each well, and incubated for 3 h;
(§4) 8. The culture solution was carefully sucked out;
(§5) 9. 100 μl of DMSO was added in each well and vibrated to dissolve;
(§6) 10. OD values were determined at 490 nM.
(§7) 1. Calculation of Relative Inhibition Ratio The inhibition ratio of a compound on cell growth=(PC−n)/(PC−NC)×100%
(§8) IC50: Concentration of a compound where inhibition ratio was 50%. IC50 values were fitted with Origin7.5.

LoVo cells = experiment: LoVo Cell Growth Inhibition Test (MTT Assay); assay type: cell-based; conditions: Homo sapiens, 72 h incubation
Method: LoVo Cell Growth Inhibition Test (MTT Assay)
1. Cell strains: LoVo (human intestinal cancer cell strains);
as §1
2. The culture solution was sucked out. The plate was washed with 5 ml of PBS 1-2 times;
as §2
4. The pancreatin was sucked out. The culture plate was placed in an incubator. Digestion was carried out for about 4 min at 37° C.;
5. 4 ml of complete culture solution was added in the culture plate to stop the digestion. The cells were carefully scoured with micropipette (1 ml) to give a uniform cell suspension. The suspension was implanted into a 96-well cell culture plate by 3000-4000 cells/100 μl per well. The culture plate was incubated overnight under 5% CO2 at 37° C. In day 2, 100 μl of culture solution comprising a compound was added into each well, and further incubated for 72 h under 5% CO2 at 37° C.
as §3
7. 100 μl of serum-free culture solution containing 0.5 mg/ml MTT was added in each well, and incubated for 4 h;
as §4, §5, §6, §7, §8

Sk-Br-3 cells = experiment: Sk-Br-3 Cell Growth Inhibition Test (SRB Assay); assay type: cell-based; conditions: Homo sapiens, 91 h incubation
Method: Sk-Br-3 Cell Growth Inhibition Test (SRB Assay)
1. Cell strains: Sk-Br-3 (human breast cancer cell strains);
2. SRB: available from Sigmaaldrich, goods number: S9012, lot number: 047K3751. SRB was reserved at the room temperature. 0.4% (w/v) of working solution was formulated with 1% of glacial acetic acid. The solution was reserved at 4° C.; anti-tumor compounds; DMSO
Culture medium: 90% DMEM+10% FBS;
1. A plate (10 cm) of cells in logarithmic growth phase normally cultured was collected. The culture solution was sucked out. The plate was washed with 5 mL of PBS 1-2 times;
2. PBS was sucked out. […] of 0.25% pancreatin was added to infiltrate the cells for 30 s;
3. The pancreatin was sucked out. The culture plate was placed in an incubator. Digestion was carried out for about 1.5-2 min at 37° C.;
4. 4 mL of complete culture solution was added to the culture plate to stop the digestion. The cells were carefully scoured with micropipette (1 ml) to give a uniform single cell suspension;
5. Cell suspension was counted. The suspension was diluted to 1×10^5/ml. The resulting suspension was developed uniformly on a plate by 10000 cells/100 μl per well. The culture plate was incubated overnight under 5% CO2 at 37° C. In day 2, 100 μl of culture solution comprising a compound was added in each well, and further incubated for 91 h under 5% CO2 at 37° C.
6. The culture solution was sucked out. 100 uL of TCA fixed cells which were diluted to 10% were added to each well. The plate was kept in a refrigerator for 1 h at 4° C.
7. TCA stationary liquid was sucked out. Each well was washed with 150 μL of ddH2O five times;
8. After the stationary liquid was cleansed, the plate was dried in the air at the room temperature;
9. 60 μL of SRB staining solution was added in each well. The well was stained for 15 min at the room temperature;
10. The SRB staining solution was sucked out. Each well was washed with 150 μL of 1% glacial acetic acid five times;
11. After the SRB staining solution was cleansed, the plate was dried in the air at the room temperature;
12. 100 μL of 10 mM Tris was added in each well. The plate was vibrated to dissolve out SRB;
13. OD values were determined at 570 nM.
To: OD values of the starting content of cells when the cells were developed on a plate;
PC: OD values of cells after normal growth in control wells without a compound;
Ti: OD values of cells after growth in test wells with a compound;
NC: Background OD values of blank well without a compound and cells
Therefore: Ratio of cells in test wells to normal wells (% of control cell growth)=(Ti−To)/(PC−To)×100%
Ratio GI50 was concentration of a compound at the point of 50%.
Therefore: Ratio of killed cells to inoculated cells (% of killed cells)=(Ti−To)/(To−NC)×100%
LC50 was concentration point of a compound when half of the starting inoculated concentration was reached.
Concentration of a compound at this point is defined as TGI (total growth inhibition).

| SMILES | IC50 (A431 cells) [µM] | IC50 (A549 cells) [µM] | IC50 (LoVo cells) [µM] | GI50 (Sk-Br-3 cells) [µM] | inhibition at 1 µM (A431 cells) [%] |
| --- | --- | --- | --- | --- | --- |
| N#Cc1cnc2cc(O[C@H]3CCOC3)c(NC(=O)/C=C/CN3CCCCC3)cc2c1Nc1ccc(OCc2ccccn2)c(Cl)c1 [Example 151, (S,E)-N-(4-(3-CHLORO-4-(PYRIDIN-2-YL-METHOXY)PHENYLAMINO)-3-CYANO-7-(TETRAHYDROFURAN-3-YL-OXY)QUINOLIN-6-YL)-4-(PIPERIDIN-1-YL)-BUT-2-ENAMIDE] | 0.061 | 3.7 | 1.9 | 0.017 | – |
| Cc1ccc(COc2ccc(Nc3c(C#N)cnc4cc(OC5CCOC5)c(NC(=O)/C=C/CN(C)C)cc34)cc2Cl)cc1 (stereo not shown) [Example 19, (E)-N-(4-(4-(4-METHYLBENZYLOXY)-3-CHLOROPHENYLAMINO)-3-CYANO-7-(TETRAHYDROFURAN-3-YL-OXY)QUINOLIN-6-YL)-4-(DIMETHYLAMINO)-BUT-2-ENAMIDE] | 0.39 | 2 | 2 | 0.063 | – |
| CN(C)C/C=C/C(=O)Nc1cc2c(Nc3ccc(OCc4ccccc4C#N)c(Cl)c3)c(C#N)cnc2cc1OC1CCOC1 (stereo not shown) [Example 13, (E)-N-(4-(4-(2-CYANOBENZYLOXY)-3-CHLOROPHENYLAMINO)-3-CYANO-7-(TETRAHYDROFURAN-3-YL-OXY)QUINOLIN-6-YL)-4-(DIMETHYLAMINO)-BUT-2-ENAMIDE] | 0.158 | 1.1 | 2 | – | 89 |
| CN(C)C/C=C/C(=O)Nc1cc2c(Nc3ccc(OCc4ccccn4)c(Cl)c3)c(C#N)cnc2cc1OC1CCOC1 (stereo not shown) [Example 21, (E)-N-(4-(3-CHLORO-4-(PYRIDIN-2-YL-METHOXY)PHENYLAMINO)-3-CYANO-7-(TETRAHYDROFURAN-3-YL-OXY)QUINOLIN-6-YL)-4-(DIMETHYLAMINO)-BUT-2-ENAMIDE] | 0.081 | 0.9 | 2 | 0.0041 | – |
| CN(C)C/C=C/C(=O)Nc1cc2c(Nc3ccc(OCc4ccccc4)c(Cl)c3)c(C#N)cnc2cc1OC1CCOC1 (stereo not shown) [Example 12, (E)-N-(4-(4-(BENZYLOXY)-3-CHLOROPHENYLAMINO)-3-CYANO-7-(TETRAHYDROFURAN-3-YL-OXY)QUINOLIN-6-YL)-4-(DIMETHYLAMINO)-BUT-2-ENAMIDE] | 0.147 | 2 | 2 | – | – |
| N#Cc1cnc2cc(O[C@H]3CCOC3)c(NC(=O)/C=C/CN3CCOCC3)cc2c1Nc1ccc(OCc2ccccn2)c(Cl)c1 [Example 152, (S,E)-N-(4-(3-CHLORO-4-(PYRIDIN-2-YL-METHOXY)PHENYLAMINO)-3-CYANO-7-(TETRAHYDROFURAN-3-YL-OXY)QUINOLIN-6-YL)-4-(MORPHOLIN-4-YL)-BUT-2-ENAMIDE] | 0.062 | – | 6.6 | 0.019 | – |
| CN(C)C/C=C/C(=O)Nc1cc2c(Nc3ccc(OCc4cccc(Cl)c4)c(Cl)c3)c(C#N)cnc2cc1OC1CCOC1 (stereo not shown) [Example 11, (E)-N-(4-(4-(3-CHLOROBENZYLOXY)-3-CHLOROPHENYLAMINO)-3-CYANO-7-(TETRAHYDROFURAN-3-YL-OXY)QUINOLIN-6-YL)-4-(DIMETHYLAMINO)-BUT-2-ENAMIDE] | 0.184 | 1.6 | 1.6 | – | – |
| CN(C)C/C=C/C(=O)Nc1cc2c(Nc3ccc(OCc4ccccc4F)c(Cl)c3)c(C#N)cnc2cc1OC1CCOC1 (stereo not shown) [Example 8, (E)-N-(4-(4-(2-FLUOROBENZYLOXY)-3-CHLOROPHENYLAMINO)-3-CYANO-7-(TETRAHYDROFURAN-3-YL-OXY)QUINOLIN-6-YL)-4-(DIMETHYLAMINO)-BUT-2-ENAMIDE] | 0.145 | 1.7 | 1.7 | – | 91 |

Now from value to compound, other results behind:

| IC50 (A431 cells) [µM] | IC50 (A549 cells) [µM] | IC50 (LoVo cells) [µM] | SMILES | GI50 (Sk-Br-3 cells) [µM] | inhibition at 1 µM (A431 cells) [%] |
| --- | --- | --- | --- | --- | --- |
| 0.053 | 7 | – | C#Cc1cccc(Nc2c(C#N)cnc3cc(O[C@H]4CCOC4)c(NC(=O)/C=C/CNC(C)(C)C)cc23)c1 [Example 146, (S,E)-N-(3-CYANO-4-(3-ETHYNYLPHENYLAMINO)-7-(TETRAHYDROFURAN-3-YL-OXY)QUINOLIN-6-YL)-4-(TERT-BUTYLAIMINO)-BUT-2-ENAMIDE] | 0.823 | – |
| 0.026 | 1 | 3.3 | C#Cc1cccc(Nc2c(C#N)cnc3cc(O[C@H]4CCOC4)c(NC(=O)/C=C/CN4CCCCC4)cc23)c1 [Example 144, (S,E)-N-(3-CYANO-4-(3-ETHYNYLPHENYLAMINO)-7-(TETRAHYDROFURAN-3-YL-OXY)QUINOLIN-6-YL)-4-(PIPERIDIN-1-YL)-BUT-2-ENAMIDE] | 0.202 | – |
| 0.089 | – | 2.3 | C#Cc1cccc(Nc2c(C#N)cnc3cc(O[C@H]4CCOC4)c(NC(=O)/C=C/CN(C)Cc4ccccc4)cc23)c1 [Example 149, (S,E)-N-(3-CYANO-4-(3-ETHYNYLPHENYLAMINO)-7-(TETRAHYDROFURAN-3-YL-OXY)QUINOLIN-6-YL)-4-(N-METHYLBENZYLAMINO)-BUT-2-ENAMIDE] | 0.644 | – |
| 0.37 | 3.9 | 2.2 | CN(C)C/C=C/C(=O)Nc1cc2c(Nc3ccc(OCc4cccc(C#N)c4)c(Cl)c3)c(C#N)cnc2cc1OC1CCOC1 (stereo not shown) [Example 15, (E)-N-(4-(4-(3-CYANOBENZYLOXY)-3-CHLOROPHENYLAMINO)-3-CYANO-7-(TETRAHYDROFURAN-3-YL-OXY)QUINOLIN-6-YL)-4-(DIMETHYLAMINO)-BUT-2-ENAMIDE] | – | 91 |
| 0.071 | 6.7 | – | C#Cc1cccc(Nc2c(C#N)cnc3cc(O[C@H]4CCOC4)c(NC(=O)/C=C/CN4CCOCC4)cc23)c1 [Example 145, (S,E)-N-(3-CYANO-4-(3-ETHYNYLPHENYLAMINO)-7-(TETRAHYDROFURAN-3-YL-OXY)QUINOLIN-6-YL)-4-(MORPHOLIN-4-YL)-BUT-2-ENAMIDE] | 0.831 | – |
